In article PMC8709788, “Mandipropamid as a chemical inducer of proximity for in vivo applications” (Nature Chemical Biology, 2021):

Key:
[1] = molecular target: T1, FKBP12 / FRB (rapamycin CIP system) (Homo sapiens, UniProt P42345+P62942); assay: RSICS fluorescence cross-correlation in living cells; type: cell-based; conditions: COS-7 cells, 15 min, ternary complex FKBP12-rapamycin-FRB
T1 construct: gene FKBP1A

[2] = molecular target: T2, PYL / ABI (ABA CIP system) (Arabidopsis thaliana, UniProt Q8VZS8); assay: Gal4BD/VP16 induced-proximity luciferase expression assay; type: cell-based; conditions: COS-7 cells, […] h incubation; induced dimerization of PYL with ABI; text says ABA, legend of Fig. 2e names ABA and also ABA-AM
T2 construct: gene PYL1; TOM20-PYL and eGFP-ABI fusions for imaging; with Protein phosphatase 2C 56
T2 sequence (Q8VZS8 33-209 limits assumed): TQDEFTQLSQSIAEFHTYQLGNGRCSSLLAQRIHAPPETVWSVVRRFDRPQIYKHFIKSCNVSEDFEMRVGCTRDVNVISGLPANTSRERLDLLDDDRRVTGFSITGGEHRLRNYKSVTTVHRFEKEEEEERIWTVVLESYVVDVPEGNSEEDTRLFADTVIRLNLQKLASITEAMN
T2 sequence (P49597 126-423 partner limits assumed): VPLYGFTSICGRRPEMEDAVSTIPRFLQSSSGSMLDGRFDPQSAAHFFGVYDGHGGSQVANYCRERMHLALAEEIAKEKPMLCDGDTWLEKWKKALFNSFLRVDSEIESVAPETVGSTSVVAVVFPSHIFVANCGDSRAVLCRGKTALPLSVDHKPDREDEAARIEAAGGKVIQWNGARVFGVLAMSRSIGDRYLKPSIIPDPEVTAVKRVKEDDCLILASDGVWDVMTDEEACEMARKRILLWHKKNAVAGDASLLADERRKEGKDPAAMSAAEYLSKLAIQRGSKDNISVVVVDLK

T1 sequence (P62942 2-108): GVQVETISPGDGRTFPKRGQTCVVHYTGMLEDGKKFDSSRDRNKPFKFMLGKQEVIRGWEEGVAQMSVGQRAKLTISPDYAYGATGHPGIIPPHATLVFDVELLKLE
T1 sequence (P42345 2021-2113 limits assumed): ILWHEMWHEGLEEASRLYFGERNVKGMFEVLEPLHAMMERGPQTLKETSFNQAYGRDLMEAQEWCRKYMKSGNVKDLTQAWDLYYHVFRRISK

Molecule	binding efficiency (interacting fraction) at 500 nM [1] [%]	EC50 [2] [µM]
CO[C@H]1C[C@@H]2CC[C@@H](C)[C@@](O)(O2)C(=O)C(=O)N2CCCC[C@H]2C(=O)O[C@H]([C@H](C)C[C@@H]2CC[C@@H](O)[C@H](OC)C2)CC(=O)[C@H](C)/C=C(\C)[C@@H](O)[C@@H](OC)C(=O)[C@H](C)C[C@H](C)/C=C/C=C/C=C/1C [compound 5, rapamycin]	71 ± 3	–
(+)-abscisic acid [compound 3]	–	30.8 ± 15.5
